Laboratory results as given in the supplement of paper PMC11061612.

Tests used:
Test in all cases: combination Emax (second highest fraction inhibited in the dose matrix, 72 h); higher = more inhibition; extreme values may be limits of the assay
[1] = test system: EJM (Plasma Cell Myeloma)
How it was run: (§1)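 Cell lines grown in DMEM/F12 or RPMI with 10% FBS were plated in 1536-well plates and held 24 hours at 37°C, 5% CO2 before 72 hours of exposure to two-drug dose matrices, with DMSO typically at 0.2%. CellTiter-Glo 2.0 luminescence gave viability, which was converted to inhibition. Vehicle wells were set to 0 and blank wells to 1. Combination Emax is the second-highest inhibition in the matrix, and Bliss excess is the observed combination effect minus the expected EA + EB − EA·EB, where EA and EB are the single-agent effects.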

[2] = test system: SK-LU-1 (Lung Adenocarcinoma)
How it was run: as §1

[3] = test system: NCI-H650 (Lung Adenocarcinoma)
How it was run: as §1

[4] = test system: NCI-H1993 (Lung Adenocarcinoma)
How it was run: as §1

SMILES	combination Emax [1]	combination Emax [2]	combination Emax [3]	combination Emax [4]
NC1(C(=O)N[C@@H](CCO)c2ccc(Cl)cc2)CCN(c2ncnc3[nH]ccc23)CC1 [Capivasertib] + C[C@@H]1COCCN1C2=NC(=NC(=C2)C3(CC3)[S@](=N)(=O)C)C4=C5C=CNC5=NC=C4 [AZD6738] (first compound max 10 µM, 7x7, partner max 10 µM)	0.908	0.511	0.406	0.742
NC1(C(=O)N[C@@H](CCO)c2ccc(Cl)cc2)CCN(c2ncnc3[nH]ccc23)CC1 [Capivasertib] + Cn1cnc2c(F)c(Nc3ccc(Br)cc3Cl)c(C(=O)NOCCO)cc21 [Selumetinib] (first compound max 10 µM, 7x7, partner max 10 µM)	0.403	0.437	0.352	0.839
CS(=O)(=O)CCNCc1ccc(-c2ccc3ncnc(Nc4ccc(OCc5cccc(F)c5)c(Cl)c4)c3c2)o1 [Lapatinib] + C[C@@H](Oc1cc(-c2cnn(C3CCNCC3)c2)cnc1N)c1c(Cl)ccc(F)c1Cl [Crizotinib] (first compound max 10 µM, 7x7, partner max 10 µM)	0.937	0.451	0.615	0.94
CC(=O)c1c(C)c2cnc(Nc3ccc(N4CCNCC4)cn3)nc2n(C2CCCC2)c1=O [Palbociclib] + CC1(C)CCC(CN2CCN(c3ccc(C(=O)NS(=O)(=O)c4ccc(NCC5CCOCC5)c([N+](=O)[O-])c4)c(Oc4cnc5[nH]ccc5c4)c3)CC2)=C(c2ccc(Cl)cc2)C1 [Venetoclax] (first compound max 10 µM, 7x7, partner max 1 µM)	0.159	0.279	0.172	0.403
CC(=O)c1c(C)c2cnc(Nc3ccc(N4CCNCC4)cn3)nc2n(C2CCCC2)c1=O [Palbociclib] + Cc1c2c(nn1C)CSCc1cc(n(C)n1)CSc1cc(c3ccccc3c1)OCCCc1c(C(=O)O)n(C)c3c-2c(Cl)ccc13 [AZD5991] (first compound max 10 µM, 7x7, partner max 1 µM)	0.443	0.297	0.244	0.403
CC(=O)c1c(C)c2cnc(Nc3ccc(N4CCNCC4)cn3)nc2n(C2CCCC2)c1=O [Palbociclib] + Cn1cnc2c(F)c(Nc3ccc(Br)cc3Cl)c(C(=O)NOCCO)cc21 [Selumetinib] (first compound max 10 µM, 7x7, partner max 10 µM)	0.182	0.362	0.36	0.69
Cn1cnc2c(F)c(Nc3ccc(Br)cc3Cl)c(C(=O)NOCCO)cc21 [Selumetinib] + C=CCn1c(=O)c2cnc(Nc3ccc(N4CCN(C)CC4)cc3)nc2n1-c1cccc(C(C)(C)O)n1 [AZD1775] (first compound max 10 µM, partner max 1 µM)	0.867	0.46	0.693	0.83
Cn1cnc2c(F)c(Nc3ccc(Br)cc3Cl)c(C(=O)NOCCO)cc21 [Selumetinib] + CC(C)n1c(=O)n(C)c2cnc3cc(F)c(-c4ccc(OCCCN5CCCCC5)nc4)cc3c21 [AZD1390] (first compound max 10 µM, 7x7, partner max 0.3 µM)	0.0932	0.264	0.243	0.627
Cn1cnc2c(F)c(Nc3ccc(Br)cc3Cl)c(C(=O)NOCCO)cc21 [Selumetinib] + CCN(CCO)CCCOc1ccc2c(Nc3cc(CC(=O)Nc4cccc(F)c4)[nH]n3)ncnc2c1 [AZD2811] (first compound max 10 µM, 7x7, partner max 1 µM)	0.175	0.301	0.387	0.703
Cn1cnc2c(F)c(Nc3ccc(Br)cc3Cl)c(C(=O)NOCCO)cc21 [Selumetinib] + C[C@@H]1COCCN1C2=NC(=NC(=C2)C3(CC3)[S@](=N)(=O)C)C4=C5C=CNC5=NC=C4 [AZD6738] (first compound max 10 µM, 7x7, partner max 10 µM)	0.855	0.376	0.619	0.795
